Data reported in patent publication US20140194480A1, “METHODS FOR THE CONTROL OF TERMITES AND ANTS” (SYNGENTA PARTICIPATIONS AG, priority 2011, published 2014).

What was measured:
termites [1] = experiment: Transfer test: termites exposed 6 h on treated sand, then combined with unexposed termites; total termite mortality; format: in vivo; settings: for % mortality: Table 3; for % mortality of the total termites: Table 4
Description: Washed sand is treated with the experimental compound in a volatile solvent, so as to deliver the desired concentration w/w in the solvent free sand. Once the solvent has evaporated, the sand is thoroughly mixed and made up with deionised water to 3% w/w moisture content. Ca. 5 g of the so treated sand is placed in the base of a 9 cm Petri dish. 20 worker termites are placed on the treated sand and placed in a dark room under similar temperature to their culture colony. After 6 hours the termites are assessed for mortality and carefully removed from the treated sand, before being placed in a similar Petri dish of untreated sand (3% moisture content). 20 further termites are taken from the same colony and placed in the Petri dish with the exposed termites, along with a section of filter paper ca. 2 cm^2. The lid of the Petri dish is replaced and sealed with laboratory film. The so constructed Petri dish arena are placed in a dark room with a similar temperature to the culture colony. Assessments of total termite mortality, symptomology and behaviour are made at daily intervals.

termites [2] = experiment: Treated sand column test: termite mortality and distance tunnelled into treated sand; format: in vivo
Description: Washed sand was treated with the experimental compound diluted in acetone. The acetone was allowed to evaporate, and the sand thoroughly mixed. De-ionised water was added to the treated sand to give a final water content of 3%. The treated sand was then packed into a glass tube with an internal diameter of 13.2 mm, to produce a 4 cm column. This was held in place at one end with a section of 7% agar. Sections of filter paper were placed at both ends of the column. Approximately 25 mixed age termites were added to the end of the tube containing the agar. Both ends were then sealed with rubber bungs. Assessments were made 1, 2, 3, 7 and 21 days after infestation, measuring termite mortality and the distance tunnelled into the treated sand.

[3] = 2.5 ppm, 0 days after treatment
[4] = 2.5 ppm, 2 days after treatment
[5] = 2.5 ppm, 3 days after treatment
[6] = 2.5 ppm, 6 days after treatment
[7] = 2.5 ppm, 7 days after treatment
[8] = 2.5 ppm, 8 days after treatment
[9] = 2.5 ppm, 9 days after treatment
[10] = 2.5 ppm, 14 days after treatment
[11] = 1.25 ppm, 0 days after treatment
[12] = 1.25 ppm, 1 day after treatment
[13] = 1.25 ppm, 2 days after treatment
[14] = 1.25 ppm, 3 days after treatment
[15] = 1.25 ppm, 6 days after treatment
[16] = 1.25 ppm, 7 days after treatment
[17] = 1.25 ppm, 8 days after treatment
[18] = 1.25 ppm, 9 days after treatment
[19] = 1.25 ppm, 14 days after treatment

For `Cc1cc(C2=NOC(c3cc(Cl)cc(Cl)c3)(C(F)(F)F)C2)ccc1C(=O)NC1(C)CSC1` (racemic) [Compound 1], the “% mortality” value (termites [1]; 10 ppm, 2 days after application) was 0%, the “% mortality” value (termites [1]; 10 ppm, 3 days after application) was 14% and the “% mortality” value (termites [1]; 10 ppm, 6 days after application) was 30%. For the same compound, the “% mortality” value (termites [1]; 10 ppm, 7 days after application) was 38%, the “% mortality” value (termites [1]; 10 ppm, 8 days after application) was 43% and the “% mortality” value (termites [1]; 10 ppm, 9 days after application) was 50%. The “% mortality” value (termites [1]; 10 ppm, 10 days after application) was 67%, the “% mortality” value (termites [1]; 10 ppm, 13 days after application) was 78% and the “% mortality” value (termites [1]; 10 ppm, 14 days after application) was 83%. For the same compound, the “% mortality” value (termites [1]; 10 ppm, 15 days after application) was 87%, the “% mortality” value (termites [1]; 10 ppm, 16 days after application) was 88% and the “% mortality” value (termites [1]; 10 ppm, 17 days after application) was 92%. For the same compound, the “% mortality of the total termites” value (termites [1]; [3]) was 0%, the “% mortality of the total termites” value (termites [1]; 2.5 ppm, 1 day after treatment) was 0% and the “% mortality of the total termites” value (termites [1]; [4]) was 0.5%. The “% mortality of the total termites” value (termites [1]; [5]) was 0.5%, the “% mortality of the total termites” value (termites [1]; [6]) was 0.5% and the “% mortality of the total termites” value (termites [1]; [7]) was 1%. The “% mortality of the total termites” value (termites [1]; [8]) was 1%, the “% mortality of the total termites” value (termites [1]; [9]) was 1.5% and the “% mortality of the total termites” value (termites [1]; [10]) was 1.5%. For the same compound, the “% mortality of the total termites” value (termites [1]; 5 ppm, 0 days after treatment) was 0%, the “% mortality of the total termites” value (termites [1]; 5 ppm, 1 day after treatment) was 0.5% and the “% mortality of the total termites” value (termites [1]; 5 ppm, 2 days after treatment) was 1.5%. The “% mortality of the total termites” value (termites [1]; 5 ppm, 3 days after treatment) was 1.5%, the “% mortality of the total termites” value (termites [1]; 5 ppm, 6 days after treatment) was 1.5% and the “% mortality of the total termites” value (termites [1]; 5 ppm, 7 days after treatment) was 6%. For the same compound, the “% mortality of the total termites” value (termites [1]; 5 ppm, 8 days after treatment) was 6%, the “% mortality of the total termites” value (termites [1]; 5 ppm, 9 days after treatment) was 7% and the “% mortality of the total termites” value (termites [1]; 5 ppm, 14 days after treatment) was 7.5%. For the same compound, the “% mortality of the total termites” value (termites [1]; 10 ppm, 0 days after treatment) was 0%, the “% mortality of the total termites” value (termites [1]; 10 ppm, 1 day after treatment) was 19.5% and the “% mortality of the total termites” value (termites [1]; 10 ppm, 2 days after treatment) was 23.5%. For the same compound, the “% mortality of the total termites” value (termites [1]; 10 ppm, 3 days after treatment) was 27.5%, the “% mortality of the total termites” value (termites [1]; 10 ppm, 6 days after treatment) was 32.5% and the “% mortality of the total termites” value (termites [1]; 10 ppm, 7 days after treatment) was 33.5%. The “% mortality of the total termites” value (termites [1]; 10 ppm, 8 days after treatment) was 35%, the “% mortality of the total termites” value (termites [1]; 10 ppm, 9 days after treatment) was 35.5% and the “% mortality of the total termites” value (termites [1]; 10 ppm, 14 days after treatment) was 37.5%.
In the case of `Cc1cc(C2=NCC(c3cc(Cl)cc(Cl)c3)(C(F)(F)F)C2)ccc1C(=O)NC1(C)CSC1` (racemic) [Compound 1b], the “% mortality of the total termites” value (termites [1]; [11]) is reported as 0%, the “% mortality of the total termites” value (termites [1]; [12]) is reported as 1.5% and the “% mortality of the total termites” value (termites [1]; [13]) is reported as 3.5%. For the same compound, the “% mortality of the total termites” value (termites [1]; [14]) was 5.5%, the “% mortality of the total termites” value (termites [1]; [15]) was 6% and the “% mortality of the total termites” value (termites [1]; [16]) was 6%. The “% mortality of the total termites” value (termites [1]; [17]) was 6%, the “% mortality of the total termites” value (termites [1]; [18]) was 6.5% and the “% mortality of the total termites” value (termites [1]; [19]) was 6.5%. For the same compound, the “% mortality of the total termites” value (termites [1]; [3]) was 0%, the “% mortality of the total termites” value (termites [1]; 2.5 ppm, 1 day after treatment) was 10% and the “% mortality of the total termites” value (termites [1]; [4]) was 19%. For the same compound, the “% mortality of the total termites” value (termites [1]; [5]) was 22.5%, the “% mortality of the total termites” value (termites [1]; [6]) was 27% and the “% mortality of the total termites” value (termites [1]; [7]) was 36%. The “% mortality of the total termites” value (termites [1]; [8]) was 36.5%, the “% mortality of the total termites” value (termites [1]; [9]) was 37% and the “% mortality of the total termites” value (termites [1]; [10]) was 38%. The “% mortality of the total termites” value (termites [1]; 5 ppm, 0 days after treatment) was 0%, the “% mortality of the total termites” value (termites [1]; 5 ppm, 1 day after treatment) was 15% and the “% mortality of the total termites” value (termites [1]; 5 ppm, 2 days after treatment) was 33.5%. For the same compound, the “% mortality of the total termites” value (termites [1]; 5 ppm, 3 days after treatment) was 40.5%, the “% mortality of the total termites” value (termites [1]; 5 ppm, 6 days after treatment) was 52.5% and the “% mortality of the total termites” value (termites [1]; 5 ppm, 7 days after treatment) was 59.5%. The “% mortality of the total termites” value (termites [1]; 5 ppm, 8 days after treatment) was 60%, the “% mortality of the total termites” value (termites [1]; 5 ppm, 9 days after treatment) was 61.5% and the “% mortality of the total termites” value (termites [1]; 5 ppm, 14 days after treatment) was 63.5%.
`Cc1cc(C2=NOC(c3cc(Cl)cc(Cl)c3)(C(F)(F)F)C2)ccc1C(=O)NC1CSC1` (racemic) [Compound 5] was tested, and the “% mortality of the total termites” value (termites [1]; [11]) was 0%, the “% mortality of the total termites” value (termites [1]; [12]) was 3% and the “% mortality of the total termites” value (termites [1]; [13]) was 12%. The “% mortality of the total termites” value (termites [1]; [14]) was 12%, the “% mortality of the total termites” value (termites [1]; [15]) was 20% and the “% mortality of the total termites” value (termites [1]; [16]) was 24%. For the same compound, the “% mortality of the total termites” value (termites [1]; [17]) was 25%, the “% mortality of the total termites” value (termites [1]; [18]) was 26.5% and the “% mortality of the total termites” value (termites [1]; [19]) was 30%. The “% mortality of the total termites” value (termites [1]; [3]) was 0%, the “% mortality of the total termites” value (termites [1]; 2.5 ppm, 1 day after treatment) was 15% and the “% mortality of the total termites” value (termites [1]; [4]) was 31%. For the same compound, the “% mortality of the total termites” value (termites [1]; [5]) was 32%, the “% mortality of the total termites” value (termites [1]; [6]) was 42% and the “% mortality of the total termites” value (termites [1]; [7]) was 46.5%. The “% mortality of the total termites” value (termites [1]; [8]) was 46.5%, the “% mortality of the total termites” value (termites [1]; [9]) was 49.5% and the “% mortality of the total termites” value (termites [1]; [10]) was 56%. For the same compound, the “% mortality of the total termites” value (termites [1]; 5 ppm, 0 days after treatment) was 0%, the “% mortality of the total termites” value (termites [1]; 5 ppm, 1 day after treatment) was 20.5% and the “% mortality of the total termites” value (termites [1]; 5 ppm, 2 days after treatment) was 42%. The “% mortality of the total termites” value (termites [1]; 5 ppm, 3 days after treatment) was 44%, the “% mortality of the total termites” value (termites [1]; 5 ppm, 6 days after treatment) was 52.5% and the “% mortality of the total termites” value (termites [1]; 5 ppm, 7 days after treatment) was 54.5%. The “% mortality of the total termites” value (termites [1]; 5 ppm, 8 days after treatment) was 56.5%, the “% mortality of the total termites” value (termites [1]; 5 ppm, 9 days after treatment) was 56.5% and the “% mortality of the total termites” value (termites [1]; 5 ppm, 14 days after treatment) was 65.5%.
With `N#Cc1nn(-c2c(Cl)cc(C(F)(F)F)cc2Cl)c(N)c1[S+]([O-])C(F)(F)F` (stereo not drawn) [Fipronil] the Mortality/average % (termites [2]; Table 1, 0.01 ppm in sand, 1 DAA) was 7%, the Mortality/average % (termites [2]; Table 1, 0.01 ppm in sand, 2 DAA) was 7% and the Mortality/average % (termites [2]; Table 1, 0.01 ppm in sand, 3 DAA) was 7%. The Mortality/average % (termites [2]; Table 1, 0.01 ppm in sand, 7 DAA) was 7%, the Mortality/average % (termites [2]; Table 1, 0.01 ppm in sand, 21 DAA) was 52% and the Mortality/average % (termites [2]; Table 1, 0.1 ppm in sand, 1 DAA) was 0%. For the same compound, the Mortality/average % (termites [2]; Table 1, 0.1 ppm in sand, 2 DAA) was 28%, the Mortality/average % (termites [2]; Table 1, 0.1 ppm in sand, 3 DAA) was 33% and the Mortality/average % (termites [2]; Table 1, 0.1 ppm in sand, 7 DAA) was 77%. It also gave a Mortality/average % (termites [2]; Table 1, 0.1 ppm in sand, 21 DAA) of 100%, a Mortality/average % (termites [2]; Table 2, 0.01 ppm in sand, 1 DAA) of 27% and a Mortality/average % (termites [2]; Table 2, 0.01 ppm in sand, 2 DAA) of 40%. The Mortality/average % (termites [2]; Table 2, 0.01 ppm in sand, 3 DAA) was 40%, the Mortality/average % (termites [2]; Table 2, 0.01 ppm in sand, 7 DAA) was 40% and the Mortality/average % (termites [2]; Table 2, 0.01 ppm in sand, 21 DAA) was 40%. The Mortality/average % (termites [2]; Table 2, 0.1 ppm in sand, 1 DAA) was 27%, the Mortality/average % (termites [2]; Table 2, 0.1 ppm in sand, 2 DAA) was 30% and the Mortality/average % (termites [2]; Table 2, 0.1 ppm in sand, 3 DAA) was 40%. For the same compound, the Mortality/average % (termites [2]; Table 2, 0.1 ppm in sand, 7 DAA) was 40%, the Mortality/average % (termites [2]; Table 2, 0.1 ppm in sand, 21 DAA) was 40% and the “repellency (in words)” value (termites [2]; fipronil rates tested (0.1 and 0.01 ppm)) was “not repellent”.
